US11377441B2, “Covalent inhibitors of KRAS” (Araxes Pharma LLC, priority 2017, dated 2022)

Molecular target: T1, KRAS G12C 1-169, his-tagged protein, GDP-loaded (Homo sapiens, UniProt P01116, G12C)
T1 construct: KRAS G12C 1-169, his-tagged protein, GDP-loaded
Experiment: Biochemical assay: covalent modification of KRAS G12C measured by mass spectrometry (RapidFire/TOF or Q-Exactive)
Type: binding
Conditions: covalent binding to (modification of) KRAS G12C after a ten minute incubation period
Outline: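 GDP-loaded KRAS G12C 1-169 (his-tagged) at 2 μM or 0.5 μM in 20 mM Hepes, 150 mM NaCl, 1 mM MgCl2, incubated with compound at 100, 30 or 10 μM at room temperature for 10 min, 30 min, 2 h or 24 h, then quenched with formic acid. Intact-protein LC-MS, deconvolved; percent modification from modified versus unmodified protein.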

## C=CC(=O)N1C[C@H](C)N(c2nc(OCC(C)(C)N(C)C)nc3c(F)c(-c4c(C)ccc5cnn(C6CC6)c45)c(Cl)cc23)C[C@H]1C [Compound 215, 1-((2R,5S)-4-(6-chloro-7-(1-cyclopropyl-6-methyl-1H-indazol-7-yl)-2-(2-(dimethylamino)-2-methylpropoxy)-8-fluoroquinazolin-4-yl)-2,5-dimethylpiperazin-1-yl)prop-2-en-1-one]
  Binding %: +++ (+++ indicates binding activity greater than 80%)

## C=CC(=O)N1C[C@H](C)N(c2nc(N3CC(NC)C3)nc3c(F)c(-c4c(C)ccc5cnn(C)c45)c(Cl)cc23)C[C@H]1C (atropisomer, axis not shown) [Compound 170, 1-((2R,5S)-4-((R)-6-chloro-7-(1,6-dimethyl-1H-indazol-7-yl)-8-fluoro-2-(3-(methylamino)azetidin-1-yl)quinazolin-4-yl)-2,5-dimethylpiperazin-1-yl)prop-2-en-1-one]
  Binding %: +++ (+++ indicates binding activity greater than 80%)

## C=CC(=O)N1C[C@H](C)N(c2nc(OCCN3CCC(F)(F)C3)nc3c(F)c(-c4c(C)ccc5[nH]nc(C6CC6)c45)c(Cl)cc23)C[C@H]1C (atropisomer, axis not shown) [Compound 116, 1-((2R,5S)-4-((S)-6-chloro-7-(3-cyclopropyl-5-methyl-1H-indazol-4-yl)-2-(2-(3,3-difluoropyrrolidin-1-y)ethoxy)-8-fluoroquinazolin-4-yl)-2,5-dimethylpiperazin-1-yl)prop-2-en-1-one]
  Binding %: + (+ indicates binding activity greater than 0% and up to 50%)

## C=CC(=O)N1C[C@H](C)N(c2nc(OCCN3CCC(F)(F)C3)nc3c(F)c(-c4c(C)ccc5[nH]nc(N)c45)c(Cl)cc23)C[C@H]1C (atropisomer, axis not shown) [Compound 66, 1-((2R,5S)-4-((S)-7-(3-amino-5-methyl-1H-indazol-4-yl)-6-chloro-2-(2-(3,3-difluoropyrrolidin-1-yl)ethoxy)-8-fluoroquinazolin-4-yl)-2,5-dimethylpiperazin-1-y)prop-2-en-1-one]
  Binding %: + (+ indicates binding activity greater than 0% and up to 50%)

## C=CC(=O)N1C[C@H](C)N(c2nc(N3CC(N(C)C)C3)nc3c(F)c(-c4c(C)ccc5nn(C)cc45)c(Cl)cc23)C[C@H]1C (atropisomer, axis not shown) [Compound 88, 1-((2R,5S)-4-((R)-6-chloro-7-(2,5-dimethyl-2H-indazol-4-yl)-2-(3-(dimethylamino)azetidin-1-yl)-8-fluoroquinazolin-4-yl)-2,5-dimethylpiperazin-1-yl)prop-2-en-1-one]
  Binding %: ++ (++ indicates binding activity from 50 to 80%)

## C=CC(=O)N1C[C@H](C)N(c2nc(N3CC(N(C)C)C3)nc3c(F)c(-c4c(C)ccc5[nH]nc(NC(C)C)c45)c(Cl)cc23)C[C@H]1C [Compound 39, 1-((2R,5S)-4-(6-chloro-2-(3-(dimethylamino)azetidin-1-yl)-8-fluoro-7-(3-(isopropylamino)-5-methyl-1H-indazol-4-yl)quinazolin-4-yl)-2,5-dimethylpiperazin-1-yl)prop-2-en-1-one]
  Binding %: + (+ indicates binding activity greater than 0% and up to 50%)

## C=CC(=O)N1C[C@H](C)N(c2nc(N3CC(N)C3)nc3c(F)c(-c4c(C)ccc5[nH]nc(C6CC6)c45)c(Cl)cc23)C[C@H]1C [Compound 126, 1-((2R,5S)-4-(2-(3-aminoazetidin-1-yl)-6-chloro-7-(3-cyclopropyl-5-methyl-1H-indazol-4-yl)-8-fluoroquinazolin-4-yl)-2,5-dimethylpiperazin-1-yl)prop-2-en-1-one]
  Binding %: +++ (+++ indicates binding activity greater than 80%)

## C=CC(=O)N1C[C@H](C)N(c2nc(OC3CCOC3)nc3c(F)c(-c4c(C)ccc5cnn(C)c45)c(Cl)cc23)C[C@H]1C (stereo partly drawn) [Compound 216, 1-((2R,5S)-4-(6-chloro-7-(1,6-dimethyl-1H-indazol-7-yl)-8-fluoro-2-(tetrahydrofuran-3-yloxy)quinazolin-4-yl)-2,5-dimethylpiperazin-1-yl)prop-2-en-1-one]
  Binding %: ++ (++ indicates binding activity from 50 to 80%)

## C=CC(=O)N1C[C@H](C)N(c2nc(N3CC(N(C)C)C3)nc3c(F)c(-c4c(F)ccc5cnn(C)c45)c(Cl)cc23)C[C@H]1C (atropisomer, axis not shown) [Compound 155, 1-((2R,5S)-4-((R)-6-chloro-2-(3-(dimethylamino)azetidin-1-yl)-8-fluoro-7-(6-fluoro-1-methyl-1H-indazol-7-yl)quinazolin-4-yl)-2,5-dimethylpiperazin-1-yl)prop-2-en-1-one]
  Binding %: + (+ indicates binding activity greater than 0% and up to 50%)

## C=CC(=O)N1C[C@H](C)N(c2nc(OC[C@H]3COCCN3C)nc3c(F)c(-c4c(C)ccc5[nH]nc(C6CC6)c45)c(Cl)cc23)C[C@H]1C [Compound 180, 1-((2R,5S)-4-(6-chloro-7-(3-cyclopropyl-5-methyl-1H-indazol-4-yl)-8-fluoro-2-(((R)-4-methymorpholin-3-yl)methoxy)quinazolin-4-yl)-2,5-dimethylpiperazin-1-yl)prop-2-en-1-one]
  Binding %: ++ (++ indicates binding activity from 50 to 80%)

## C=CC(=O)N1C[C@H](C)N(c2nc(N3CC(N(C)C)C3)nc3c(F)c(-c4c(C)ccc5nn[nH]c45)c(Cl)cc23)C[C@H]1C [Compound 86, 1-((2R,5S)-4-(6-chloro-2-(3-(dimethylamino)azetidin-1-yl)-8-fluoro-7-(6-methyl-1H-benzo[d][1,2,3]triazol-7-yl)quinazolin-4-yl)-2,5-dimethylpiperazin-1-yl)prop-2-en-1-one]
  Binding %: + (+ indicates binding activity greater than 0% and up to 50%)

## C=CC(=O)N1C[C@H](C)N(c2nc(N3CC(N(C)C)C3)nc3c(F)c(-c4c(C)ccc5nc(C)[nH]c45)c(Cl)cc23)C[C@H]1C [Compound 52, 1-((2R,5S)-4-(6-chloro-7-(2,6-dimethyl-1H-benzo[d]imidazol-7-yl)-2-(3-(dimethylamino)azetidin-1-yl)-8-fluoroquinazolin-4-yl)-2,5-dimethylpiperazin-1-yl)prop-2-en-1-one]
  Binding %: ++ (++ indicates binding activity from 50 to 80%)

## C=CC(=O)N1C[C@H](C)N(c2nc(OCCN3CCCC3)nc3c(F)c(-c4c(C)ccc5[nH]nc(N)c45)c(Cl)cc23)C[C@H]1C (atropisomer, axis not shown) [Compound 53, 1-((2R,5S)-4-((S)-7-(3-amino-5-methyl-1H-indazol-4-yl)-6-chloro-8-fluoro-2-(2-(pyrrolidin-1-yl)ethoxy)quinazolin-4-yl)-2,5-dimethylpiperazin-1-yl)prop-2-en-1-one]
  Binding %: + (+ indicates binding activity greater than 0% and up to 50%)

## C=CC(=O)N1C[C@H](C)N(c2nc(N3CC(N(C)C)C3)nc3c(F)c(-c4cccc5c4N(C)C(=O)C5)c(Cl)cc23)C[C@H]1C [Compound 262, 7-(4-((2S,5R)-4-acryloyl-2,5-dimethylpiperazin-1-yl)-6-chloro-2-(3-(dimethylamino)azetidin-1-yl)-8-fluoroquinazolin-7-yl)-1-methylindolin-2-one]
  Binding %: + (+ indicates binding activity greater than 0% and up to 50%)

## C=CC(=O)N1C[C@H](C)N(c2nc(N3CC(N(C)C)C3)nc3c(F)c(-c4c(C)ccc5[nH]nc(C6CC6)c45)c(C(F)(F)F)cc23)C[C@H]1C [Compound 193, 1-((2R,5S)-4-(7-(3-cyclopropyl-5-methyl-1H-indazol-4-yl)-2-(3-(dimethylamino)azetidin-1-yl)-8-fluoro-6-(trifluoromethyl)quina-zolin-4-yl)-2,5-dimethylpiperazin-1-yl)prop-2-en-1-one]
  Binding %: +++ (+++ indicates binding activity greater than 80%)

## C=CC(=O)N1C[C@@H](C)N(c2nc(N3CC(N(C)C)C3)nc3c(F)c(-c4c(C)ccc5[nH]nc(C6CC6)c45)c(Cl)cc23)C[C@H]1C (atropisomer, axis not shown) [Compound 251, 1-((2R,5R)-4-((R)-6-chloro-7-(3-cyclopropyl-5-methyl-1H-indazol-4-yl)-2-(3-(dimethylamino)azetidin-1-yl)-8-fluoroquinazolin-4-yl)-2,5-dimethylpiperazin-1-yl)prop-2-en-1-one]
  Binding %: +++ (+++ indicates binding activity greater than 80%)

## C=CC(=O)N1C[C@H](C)N(c2nc(N3CC(N(C)C)C3)nc3c(F)c(-c4c(C)ccc5ccn(C)c45)c(Cl)cc23)C[C@H]1C [Compound 202, 1-((2R,5S)-4-((S)-6-chloro-7-(1,6-dimethyl-1H-indol-7-yl)-2-(3-(dimethylamino)azetidin-1-yl)-8-fluoroquinazolin-4-yl)-2,5-dimethylpiperazin-1-yl)prop-2-en-1-one]
  Binding %: + (+ indicates binding activity greater than 0% and up to 50%)

## C=CC(=O)N1C[C@H](C)N(c2nc(N3CC(N(C)C)C3)nc3c(F)c(-c4c(C)ccc5[nH]nc(NC6CCC6)c45)c(Cl)cc23)C[C@H]1C [Compound 36, 1-((2R,5S)-4-(6-chloro-7-(3-(cyclobutylamino)-5-methyl-1H-indazol-4-yl)-2-(3-(dimethylamino)azetidin-1-yl)-8-fluoroquinazolin-4-yl)-2,5-dimethylpiperazin-1-yl)prop-2-en-1-one]
  Binding %: + (+ indicates binding activity greater than 0% and up to 50%)

## C=CC(=O)N1CCN(c2nc(N3CC(N(C)C)C3)nc3c(F)c(-c4c(C)ccc5[nH]nc(C)c45)c(Cl)cc23)CC1CC#N (stereo not shown) [Compound 270, 2-(1-acryloyl-4-(6-chloro-7-(3,5-dimethyl-1H-indazol-4-yl)-2-(3-(dimethylamino)azetidin-1-yl)-8-fluoroquinazolin-4-yl)piperazin-2-yl)acetonitrile]
  Binding %: +++ (+++ indicates binding activity greater than 80%)
